Data set [1] relates to Plasmodium falciparum Dd2 asexual blood stage parasites. As to the kind of experiment: microbe, parasite or virus in culture. Also on record: species or system Plasmodium falciparum Dd2 in human erythrocytes; single determination (one 11-point concentration-response curve). The note with it: Plasmodium falciparum, DD2, Erythrocyte, 72 h; read-out: AC50.
The next data set in a line: in vitro. The settings on record: human, HepG2-A16-CD81EGFP cells, uninfected.

The record followed here is PMC7822874, “Chemoprotective antimalarials identified through quantitative high-throughput screening of Plasmodium blood and liver stage parasites” (Scientific Reports, 2021).

Molecules are shown by their SMILES.

The AC50 is the midpoint of the concentration-response curve, whichever way the signal moves. What is called viability is a read-out of living cells in per cent, often relative to untreated cells.

Turning to `COC(=O)c1c(-c2c(Cl)cccc2Cl)noc1NC(=O)NN1CCCCC1` [MLS000861266-01], the AC50 in data set [1] was determined as 2.37 µM. Besides, in the data set “in vitro”, the viability at 48 h, 1 µM turned out to be 93% and the viability at 48 h, 3 µM turned out to be 87%.

As for `Oc1c2c(nc3ccc(Br)cc13)CCCC2` [MLS000074180-01], the AC50 in data set [1] was 6.68 µM. Also, in “in vitro”, the viability at 48 h, 1 µM came out at 100% and the viability at 48 h, 3 µM came out at 98%.

`O=S(=O)(c1ccc2ccccc2c1)N1CCN(/C(S)=N/c2ccccc2F)CC1` [MLS000760214-01]: the AC50 in data set [1] was found to be 4.22 µM. For the same compound, in “in vitro”, the viability at 48 h, 1 µM worked out at 103% and the viability at 48 h, 3 µM came to 102%.

Regarding `CN(C)c1cc[n+](CC(=O)c2cccs2)cc1` [MLS001207444-01], in data set [1], the AC50 came out at 6.68 µM. Also, the viability at 66 h in the data set “in vitro” worked out at 101%.

Regarding `CCC(C)c1ccc(O)c(NC(=O)c2cncc(Br)c2)c1` (stereo not drawn) [MLS000062368-01], in data set [1], the AC50 was found to be 2.99 µM. In addition, in the data set “in vitro”, the viability at 48 h, 1 µM worked out at 113% and the viability at 48 h, 3 µM turned out to be 103%.

Regarding `Oc1ccccc1Nc1nc(-c2ccccc2O)nc2ccccc12` [MLS001164904-01], the AC50 in data set [1] came to 0.944 µM. The viability at 66 h in “in vitro” was found to be 101%.

Turning to `Cc1ccccc1NC(=O)c1cc(C(=O)c2cc(Cl)ccc2O)cn(-c2ccccc2C)c1=O` [MLS000374594-01], in data set [1], the AC50 was 0.376 µM. Further, in the data set “in vitro”, the viability at 48 h, 1 µM amounted to 98% and the viability at 48 h, 3 µM came out at 93%.

For the compound `CCn1c(SCC(=O)NCCc2ccccc2)nc2sc3c(c2c1=O)CCN(C)C3` [MLS000332196-01], in data set [1], the AC50 worked out at 5.31 µM. In the data set “in vitro”, the viability at 48 h, 1 µM was found to be 96% and the viability at 48 h, 3 µM worked out at 87%.

For the compound `Cc1cn(-c2cc(C(=O)Nc3ccc(C)c(NC(=O)C(=O)c4c[nH]c5ccccc45)c3)cc(C(F)(F)F)c2)cn1` [MLS003105973-01], in data set [1], the AC50 came out at 2.11 µM. In “in vitro”, the viability at 48 h worked out at 112% and the viability at 48 h, 1 µM amounted to 112%.

Take `COc1ccc2c(c1)C1(Nc3ccccc3-c3nc4ccccc4n31)C(=O)N2` (stereo not drawn) [MLS000080605-01]: in data set [1], the AC50 came to 0.596 µM. Moreover, in “in vitro”, the viability at 48 h, 1 µM came out at 99% and the viability at 48 h, 3 µM was determined as 104%.

For `CCCc1cc(=O)oc2c(C)c(O)c(CN3CCCCC3)cc12` [MLS000081526-01], the half-maximal activity concentration (AC50) in data set [1] came out at 3.35 µM. In addition, the viability at 66 h in “in vitro” is 104%.

Regarding `CC(OC(=O)CCc1cc(C(C)(C)C)c(O)c(C(C)(C)C)c1)C(=O)NC1CC1` (stereo not drawn) [MLS001159754-01], in data set [1], the AC50 is 4.73 µM. Also, in the data set “in vitro”, the viability at 48 h, 1 µM is 104% and the viability at 48 h, 3 µM amounted to 101%.

With `COc1ccc(C2=C(Nc3ccc(C)cc3)c3ccccc3C2=O)cc1` [MLS000563980-01], the AC50 in data set [1] was 4.73 µM. In “in vitro”, the viability at 48 h, 1 µM came out at 96% and the viability at 48 h, 3 µM worked out at 90%.

Take `CN(CCNC(=O)c1cc2c(-c3ccccc3F)nn(C)c2s1)C1CCCCC1` [MLS001199243-01]: the AC50 in data set [1] amounted to 5.96 µM. For the same compound, in “in vitro”, the viability at 48 h, 1 µM came to 84% and the viability at 48 h, 3 µM is 84%.

As to `Oc1ccc(Cl)cc1CNCc1cccc2ccccc12` [MLS002207460-01], the AC50 in data set [1] was determined as 0.841 µM. Also, in the data set “in vitro”, the viability at 48 h, 1 µM was found to be 103% and the viability at 48 h, 3 µM was found to be 107%.

Take `Cc1cc(N2CCN(C)CC2)nc2ccc(NC(=O)c3ccc(Br)o3)cc12` [MLS000086536-01]: in data set [1], the AC50 is 6.68 µM. Also, in the data set “in vitro”, the viability at 48 h, 1 µM came out at 104% and the viability at 48 h, 3 µM turned out to be 104%.

In the case of `CC(C)Oc1ccc2c(c1)OC(c1ccccc1)(C(F)(F)F)NC2=O` (stereo not drawn) [MLS000392812-01], the AC50 in data set [1] worked out at 2.66 µM. In “in vitro”, the viability at 48 h, 1 µM is 105% and the viability at 48 h, 3 µM came to 98%.

On to `C=CCOC(=O)C(C#N)c1nc2ccccc2nc1N1CCC(C(=O)OCC)CC1` (stereo not drawn) [MLS000036470-01], for which the AC50 in data set [1] was found to be 2.37 µM. For the same compound, in “in vitro”, the viability at 48 h, 1 µM was 108% and the viability at 48 h, 3 µM is 100%.

As to `CC(C)Cc1cc(C(=O)Nc2cc(Br)ccc2O)no1` [MLS000116399-01], the AC50 in data set [1] was 4.73 µM. For the same compound, in “in vitro”, the viability at 48 h, 1 µM worked out at 120% and the viability at 48 h, 3 µM worked out at 110%.
